Assay results taken from the supplement of paper PMC10627819.

Legend:
S. aureus Newman [1] = assay: fitness (endpoint OD595 vs no drug) (fraction); higher = more growth; settings: one replicate
Summary of the method: (§1)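 Bacterial fitness was scored as optical density at the stationary-phase transition relative to the robust mean of no-drug control wells. Scores are capped at 1. The growth data were OD595 readings every 30 min for 14 h at 37 °C, background-subtracted against the first reading, from 384-well plates inoculated at OD595 0.01 in TSB, LB Lennox or CY.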

B. subtilis 168 [2] = assay: as above
Summary of the method: as §1

S. aureus Newman [3] = assay: Bliss interaction score (quartile over a dose matrix) (fitness difference); higher = more antagonism (negative = synergy)
Summary of the method: (§2)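 The Bliss score was calculated by subtracting the expected fitness, the product of single-drug values, from the observed fitness. OD595 at entry into stationary phase, over the plate's robust no-drug mean and capped at 1, served as the fitness readout. Single-drug values were inferred from combination data, and scores are summarised by quartiles across technical, biological and donor/recipient replicates.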

B. subtilis 168 [4] = assay: as above
Summary of the method: as §2

S. aureus DSM 20231 = assay: as above
Summary of the method: as §2

S. pneumoniae D39V = assay: as above
Summary of the method: as §2

[5] = first compound 0.0975 µg/mL, partner 0.039 µg/mL
[6] = first compound 0.0975 µg/mL, partner 0.078 µg/mL
[7] = first compound 0.0975 µg/mL, partner 0.156 µg/mL
[8] = first compound 0.195 µg/mL, partner 0.039 µg/mL
[9] = first compound 0.195 µg/mL, partner 0.078 µg/mL
[10] = first compound 0.195 µg/mL, partner 0.156 µg/mL
[11] = first compound 0.04875 µg/mL, partner 1.562 µg/mL
[12] = first compound 0.04875 µg/mL, partner 3.124 µg/mL
[13] = first compound 0.0975 µg/mL, partner 1.562 µg/mL
[14] = first compound 0.0975 µg/mL, partner 3.124 µg/mL
[15] = first compound 0.195 µg/mL, partner 1.562 µg/mL
[16] = first compound 0.195 µg/mL, partner 3.124 µg/mL
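For Bliss interaction score (quartile over a dose matrix) in this document: first quartile when negative (synergy) and third quartile when positive (antagonism).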

CO/N=C(\C(=O)N[C@@H]1C(=O)N2C(C(=O)O)=C(COC(N)=O)CS[C@H]12)c1ccco1 [Cefuroxime] + CN(C)c1cc(NC(=O)CNC(C)(C)C)c(O)c2c1C[C@H]1C[C@H]3[C@H](N(C)C)C(O)=C(C(N)=O)C(=O)[C@@]3(O)C(O)=C1C2=O [Tigecycline]
fitness (S. aureus Newman [1]; first compound 0.04875 µg/mL, partner 0.039 µg/mL): 0.933
fitness (S. aureus Newman [1]; first compound 0.04875 µg/mL, partner 0.078 µg/mL): 0.907
fitness (S. aureus Newman [1]; first compound 0.04875 µg/mL, partner 0.156 µg/mL): 0.95
fitness (S. aureus Newman [1]; [5]): 0.927
fitness (S. aureus Newman [1]; [6]): 0.959
fitness (S. aureus Newman [1]; [7]): 0.895
fitness (S. aureus Newman [1]; [8]): 0.879
fitness (S. aureus Newman [1]; [9]): 0.843
fitness (S. aureus Newman [1]; [10]): 0.863
fitness (B. subtilis 168 [2]; [5]): 0.652
fitness (B. subtilis 168 [2]; [6]): 0.677
fitness (B. subtilis 168 [2]; [7]): 0.669
fitness (B. subtilis 168 [2]; [8]): 0.553
fitness (B. subtilis 168 [2]; [9]): 0.53
fitness (B. subtilis 168 [2]; first compound 0.195 µg/mL, partner 0.125 µg/mL, one replicate): 0.405
fitness (B. subtilis 168 [2]; [10]): 0.537
fitness (B. subtilis 168 [2]; first compound 0.195 µg/mL, partner 0.25 µg/mL, one replicate): 0.368
fitness (B. subtilis 168 [2]; first compound 0.195 µg/mL, partner 0.5 µg/mL, one replicate): 0.398
fitness (B. subtilis 168 [2]; first compound 0.39 µg/mL, partner 0.125 µg/mL, one replicate): 0.34
fitness (B. subtilis 168 [2]; first compound 0.39 µg/mL, partner 0.25 µg/mL, one replicate): 0.287
fitness (B. subtilis 168 [2]; first compound 0.39 µg/mL, partner 0.5 µg/mL, one replicate): 0.299
fitness (B. subtilis 168 [2]; first compound 0.78 µg/mL, partner 0.125 µg/mL, one replicate): 0.292
fitness (B. subtilis 168 [2]; first compound 0.78 µg/mL, partner 0.25 µg/mL, one replicate): 0.211
fitness (B. subtilis 168 [2]; first compound 0.78 µg/mL, partner 0.5 µg/mL, one replicate): 0.259
fitness (B. subtilis 168 [2]; first compound 1.562 µg/mL, partner 0.039 µg/mL, one replicate): 0.349
fitness (B. subtilis 168 [2]; first compound 1.562 µg/mL, partner 0.078 µg/mL, one replicate): 0.284
fitness (B. subtilis 168 [2]; first compound 1.562 µg/mL, partner 0.156 µg/mL, one replicate): 0.283
fitness (B. subtilis 168 [2]; first compound 3.125 µg/mL, partner 0.039 µg/mL, one replicate): 0.258
fitness (B. subtilis 168 [2]; first compound 3.125 µg/mL, partner 0.078 µg/mL, one replicate): 0.219
fitness (B. subtilis 168 [2]; first compound 3.125 µg/mL, partner 0.156 µg/mL, one replicate): 0.235
fitness (B. subtilis 168 [2]; first compound 6.25 µg/mL, partner 0.039 µg/mL, one replicate): 0.227
fitness (B. subtilis 168 [2]; first compound 6.25 µg/mL, partner 0.078 µg/mL, one replicate): 0.17
fitness (B. subtilis 168 [2]; first compound 6.25 µg/mL, partner 0.156 µg/mL, one replicate): 0.153
Bliss interaction score (S. aureus Newman [3]): -0.0442
Bliss interaction score (B. subtilis 168 [4]): 0.0459
Bliss interaction score (S. aureus DSM 20231): 0.0902
Bliss interaction score (S. pneumoniae D39V): 0.0499

CO/N=C(\C(=O)N[C@@H]1C(=O)N2C(C(=O)O)=C(COC(N)=O)CS[C@H]12)c1ccco1 [Cefuroxime] + C[C@@H]1O[C@@H]1P(=O)(O)O [Fosfomycin]
fitness (S. aureus Newman [1]; first compound 0.04875 µg/mL, partner 0.781 µg/mL): 0.803
fitness (S. aureus Newman [1]; [11]): 0.56
fitness (S. aureus Newman [1]; [12]): 0.12
fitness (S. aureus Newman [1]; first compound 0.0975 µg/mL, partner 0.781 µg/mL): 0.7
fitness (S. aureus Newman [1]; [13]): 0.508
fitness (S. aureus Newman [1]; [14]): 0.0863
fitness (S. aureus Newman [1]; first compound 0.195 µg/mL, partner 0.781 µg/mL): 0.632
fitness (S. aureus Newman [1]; [15]): 0.438
fitness (S. aureus Newman [1]; [16]): 0.0573
fitness (B. subtilis 168 [2]; [11]): 0.464
fitness (B. subtilis 168 [2]; [12]): 0.363
fitness (B. subtilis 168 [2]; first compound 0.04875 µg/mL, partner 6.248 µg/mL): 0.293
fitness (B. subtilis 168 [2]; [13]): 0.419
fitness (B. subtilis 168 [2]; [14]): 0.337
fitness (B. subtilis 168 [2]; first compound 0.0975 µg/mL, partner 6.248 µg/mL): 0.245
fitness (B. subtilis 168 [2]; [15]): 0.39
fitness (B. subtilis 168 [2]; [16]): 0.28
fitness (B. subtilis 168 [2]; first compound 0.195 µg/mL, partner 6.248 µg/mL): 0.194
fitness (B. subtilis 168 [2]; first compound 0.39 µg/mL, partner 1.562 µg/mL, one replicate): 0.344
fitness (B. subtilis 168 [2]; first compound 0.39 µg/mL, partner 3.124 µg/mL, one replicate): 0.331
fitness (B. subtilis 168 [2]; first compound 0.39 µg/mL, partner 6.248 µg/mL, one replicate): 0.189
fitness (B. subtilis 168 [2]; first compound 0.78 µg/mL, partner 1.562 µg/mL, one replicate): 0.301
fitness (B. subtilis 168 [2]; first compound 0.78 µg/mL, partner 3.124 µg/mL, one replicate): 0.235
fitness (B. subtilis 168 [2]; first compound 0.78 µg/mL, partner 6.248 µg/mL, one replicate): 0.131
fitness (B. subtilis 168 [2]; first compound 1.562 µg/mL, partner 1.562 µg/mL, one replicate): 0.179
fitness (B. subtilis 168 [2]; first compound 1.562 µg/mL, partner 3.124 µg/mL, one replicate): 0.17
fitness (B. subtilis 168 [2]; first compound 1.562 µg/mL, partner 6.248 µg/mL, one replicate): 0.0925
fitness (B. subtilis 168 [2]; first compound 3.125 µg/mL, partner 1.562 µg/mL, one replicate): 0.136
fitness (B. subtilis 168 [2]; first compound 3.125 µg/mL, partner 3.124 µg/mL, one replicate): 0.122
fitness (B. subtilis 168 [2]; first compound 3.125 µg/mL, partner 6.248 µg/mL, one replicate): 0.0543
fitness (B. subtilis 168 [2]; first compound 6.25 µg/mL, partner 1.562 µg/mL, one replicate): 0.113
fitness (B. subtilis 168 [2]; first compound 6.25 µg/mL, partner 3.124 µg/mL, one replicate): 0.133
fitness (B. subtilis 168 [2]; first compound 6.25 µg/mL, partner 6.248 µg/mL, one replicate): 0.0496
Bliss interaction score (S. aureus Newman [3]): 0.0983
Bliss interaction score (B. subtilis 168 [4]): -0.0716
Bliss interaction score (S. aureus DSM 20231): 0.0278
Bliss interaction score (S. pneumoniae D39V): 0.0411
